Results: ChEMBL document CHEMBL1136684, “Novel and potent human and rat beta3-adrenergic receptor agonists containing substituted 3-indolylalkylamines” (Bioorg Med Chem Lett, 2003)

Experiments:
[1] = target: T1, Beta-2 adrenergic receptor (Homo sapiens, UniProt P07550); assay: (§1) Agonistic activity against human Beta-2 adrenergic receptor by measuring cAMP accumulation in CHO cells expressing beta3-AR; assay type: functional, cell-based
Target sequence in this assay (P07550 whole entry, looked up): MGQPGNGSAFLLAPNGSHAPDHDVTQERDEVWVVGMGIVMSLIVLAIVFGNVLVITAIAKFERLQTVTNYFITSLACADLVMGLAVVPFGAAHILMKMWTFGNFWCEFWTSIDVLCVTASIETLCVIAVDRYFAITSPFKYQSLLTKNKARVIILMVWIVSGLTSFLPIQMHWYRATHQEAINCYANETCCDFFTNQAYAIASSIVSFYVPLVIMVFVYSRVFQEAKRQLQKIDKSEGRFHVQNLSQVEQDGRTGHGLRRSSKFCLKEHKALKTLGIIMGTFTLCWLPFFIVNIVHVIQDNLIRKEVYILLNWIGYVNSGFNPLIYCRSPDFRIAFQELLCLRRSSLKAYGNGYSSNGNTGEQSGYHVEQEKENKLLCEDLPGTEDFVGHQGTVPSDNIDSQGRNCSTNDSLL

[2] = target: T2, Beta-3 adrenergic receptor (Homo sapiens, UniProt P13945); assay: Agonistic activity to recombinant human beta-3 adrenergic receptor expressed in CHO cells by measuring cAMP accumulation; assay type: functional, cell-based
Target sequence in this assay (P13945 whole entry, looked up): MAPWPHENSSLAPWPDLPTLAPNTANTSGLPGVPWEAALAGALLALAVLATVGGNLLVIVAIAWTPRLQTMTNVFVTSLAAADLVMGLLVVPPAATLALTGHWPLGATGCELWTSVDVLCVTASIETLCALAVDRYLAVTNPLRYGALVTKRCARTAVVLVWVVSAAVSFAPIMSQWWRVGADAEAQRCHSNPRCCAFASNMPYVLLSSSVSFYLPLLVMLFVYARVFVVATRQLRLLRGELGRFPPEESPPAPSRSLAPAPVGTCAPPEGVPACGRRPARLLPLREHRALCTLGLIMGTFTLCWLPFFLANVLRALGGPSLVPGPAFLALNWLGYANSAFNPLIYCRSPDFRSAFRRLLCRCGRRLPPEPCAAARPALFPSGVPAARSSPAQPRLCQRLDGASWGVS

[3] = target: Beta-1 adrenergic receptor (Homo sapiens, UniProt P08588); assay: Agonistic activity against human Beta-1 adrenergic receptor by measuring cAMP accumulation in CHO cells expressing beta3-AR; assay type: functional, cell-based
[4] = target: T2, Beta-3 adrenergic receptor; assay: Agonism of recombinant human beta-3 adrenergic receptor assayed by measuring cAMP accumulation in CHO cells expressing beta3-AR; assay type: functional, cell-based
Target sequence in this assay (P13945 whole entry): as the sequence (P13945 whole entry, looked up) above

[5] = target: T1, Beta-2 adrenergic receptor; assay: as §1; assay type: functional, cell-based; remark: listed apart in the source
Target sequence in this assay (P07550 whole entry): as the sequence (P07550 whole entry, looked up) above

[6] = target: Beta-3 adrenergic receptor (Rattus norvegicus) (UniProt P26255); assay: Agonistic activity against rat Beta-3 adrenergic receptor as cAMP accumulation in CHO cells expressing beta3-AR
[7] = target: Beta-3 adrenergic receptor (Rattus norvegicus) (UniProt P26255); assay: as above; remark: listed apart in the source
[8] = target: T2, Beta-3 adrenergic receptor; assay: Agonistic activity against human Beta-3 adrenergic receptor by measuring cAMP accumulation in CHO cells expressing beta3-AR with respect to isoproterenol at a concentration of 10e-7 M; assay type: functional, cell-based
Target sequence in this assay (P13945 whole entry, looked up): as the sequence (P13945 whole entry, looked up) above

[9] = target: T2, Beta-3 adrenergic receptor; assay: Agonistic activity against human Beta-3 adrenergic receptor by measuring cAMP accumulation in CHO cells; assay type: functional, cell-based
Target sequence in this assay (P13945 whole entry, looked up): as above

[10] = target: T2, Beta-3 adrenergic receptor; assay: (§2) Agonistic activity against human Beta-3 adrenergic receptor by measuring cAMP accumulation in CHO cells expressing Beta-3 adrenergic receptor; assay type: functional, cell-based
Target sequence in this assay (P13945 whole entry): as the sequence (P13945 whole entry, looked up) above

[11] = target: T2, Beta-3 adrenergic receptor; assay: as §2; assay type: functional, cell-based; remark: listed apart in the source
Target sequence in this assay (P13945 whole entry, looked up): as above

[12] = target: T2, Beta-3 adrenergic receptor; assay: Agonistic activity against human Beta-3 adrenergic receptor by measuring cAMP accumulation in CHO cells expressing Beta-3 adrenergic receptor with respect to isoproterenol at a concentration of 10e-7 M; assay type: functional, cell-based
Target sequence in this assay (P13945 whole entry, looked up): as above

[13] = target: T2, Beta-3 adrenergic receptor; assay: Agonistic activity against human beta-3-adrenergic receptor by measuring cAMP accumulation in CHO cells expressing Beta-3 adrenergic receptor; assay type: functional, cell-based
Target sequence in this assay (P13945 whole entry, looked up): as above

Beta-1 adrenergic receptor, sequence (P08588 whole entry): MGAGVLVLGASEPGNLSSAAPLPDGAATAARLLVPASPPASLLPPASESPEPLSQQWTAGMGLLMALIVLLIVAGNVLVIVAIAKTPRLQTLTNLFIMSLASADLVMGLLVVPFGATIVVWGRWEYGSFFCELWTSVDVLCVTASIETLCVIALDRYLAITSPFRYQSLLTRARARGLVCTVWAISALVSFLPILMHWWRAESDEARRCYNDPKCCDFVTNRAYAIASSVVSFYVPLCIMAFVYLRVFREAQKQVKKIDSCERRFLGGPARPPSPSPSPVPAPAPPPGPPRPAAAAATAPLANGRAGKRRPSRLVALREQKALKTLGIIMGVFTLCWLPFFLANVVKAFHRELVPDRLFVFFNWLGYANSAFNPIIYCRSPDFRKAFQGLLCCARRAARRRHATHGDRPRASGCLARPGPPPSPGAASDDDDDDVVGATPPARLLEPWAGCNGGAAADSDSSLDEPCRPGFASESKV

For `C[C@H](Cc1c[nH]c2ccccc12)NC[C@H](O)c1cccc(Cl)c1`, the Intrinsic activity [1] was 50%, the Intrinsic activity [2] was 110% and the EC50 [3] was 1.9 nM. It also gave an EC50 [4] of 5.4 nM, an EC50 [5] of 25 nM and an EC50 [6] of 0.36 nM. For the same compound, the Intrinsic activity [7] was 98%.

`C[C@@H](Cc1c[nH]c2ccccc12)NC[C@@H](O)c1cccc(Cl)c1` was tested, and the Intrinsic activity [2] was 62%, the EC50 [3] was 140 nM and the EC50 [4] was 3300 nM. It also gave an EC50 [6] of 33 nM and an Intrinsic activity [7] of 108%.

`Cn1cc(CCNCC(O)c2cccc(Cl)c2)c2ccccc21` (centres undefined) was tested, and the cAMP accumulation [8] was 6%.

`CC(Cc1c[nH]c2c(OCC(=O)O)cccc12)NC[C@H](O)c1cccc(Cl)c1` (some centres undefined) showed an Intrinsic activity [2] of 124% and an EC50 [4] of 0.11 nM.

In the case of `COc1cccc2c(C[C@H](C)NC[C@H](O)c3cccc(Cl)c3)c[nH]c12`, the Intrinsic activity [2] is reported as 51%, the EC50 [4] is reported as 120 nM and the EC50 [6] is reported as 6.5 nM. For the same compound, the Intrinsic activity [7] was 121%.

`OC(CNCCc1c[nH]c2ccccc12)c1cccc(Cl)c1` (centres undefined) gave an Intrinsic activity [9] of 99% and an EC50 [10] of 69 nM.

Work on `Cc1cccc2[nH]cc(CCNCC(O)c3cccc(Cl)c3)c12` (centres undefined) yielded a cAMP accumulation [8] of 20%.

Work on `CC(Cc1c[nH]c2ccccc12)NCC(O)c1cccc(Cl)c1` (centres undefined) [listing 1 of 2 here] yielded an Intrinsic activity [11] of 114%.

`CC(Cc1c[nH]c2ccccc12)NCC(O)c1cccc(Cl)c1` (mixture of isomers) [listing 1 of 2 here] was tested, and the EC50 [4] was 12 nM, the EC50 [5] was 23 nM and the EC50 [6] was 0.97 nM.

Compound `CCC(Cc1c[nH]c2ccccc12)NCC(O)c1cccc(Cl)c1` (centres undefined) has a cAMP accumulation [12] of 20%.

`CCCOc1cccc2c(CC(C)NC[C@H](O)c3cccc(Cl)c3)c[nH]c12` (some centres undefined) gave an Intrinsic activity [2] of 103% and an EC50 [4] of 14 nM.

`COc1cccc2c(C[C@@H](C)NC[C@H](O)c3cccc(Cl)c3)c[nH]c12` showed an Intrinsic activity [1] of 46%, an Intrinsic activity [2] of 89% and an EC50 [4] of 0.36 nM. The EC50 [5] was 5.2 nM, the EC50 [6] was 0.15 nM and the Intrinsic activity [7] was 147%.

`CC(Cc1c[nH]c2cc(Br)ccc12)NCC(O)c1cccc(Cl)c1` (centres undefined) gave an Intrinsic activity [2] of 98% and an EC50 [4] of 38 nM.

For `Cc1ccc2c(CC(C)NCC(O)c3cccc(Cl)c3)c[nH]c2c1` (centres undefined), the Intrinsic activity [2] was 95%.

`COc1cccc2c(CC(C)NCC(O)c3cccc(Cl)c3)c[nH]c12` (centres undefined) gave an Intrinsic activity [2] of 113%.

Work on `CC(C)(Cc1c[nH]c2ccccc12)NCC(O)c1cccc(Cl)c1` (centres undefined) yielded an Intrinsic activity [13] of 118% and an EC50 [10] of 70 nM.

Compound `C[C@H](Cc1ccc(OCC(=O)O)cc1)NC[C@H](O)c1cccc(Cl)c1` has an Intrinsic activity [1] of 31%.

With `Cc1ccc2[nH]cc(CCNCC(O)c3cccc(Cl)c3)c2c1` (centres undefined) the cAMP accumulation [8] was 7%.

Compound `Cc1cccc2[nH]cc(CC(C)NCC(O)c3cccc(Cl)c3)c12` (centres undefined) has an Intrinsic activity [2] of 165% and an EC50 [4] of 96 nM.

`OC(CNC1CCc2[nH]c3ccccc3c2C1)c1cccc(Cl)c1` (centres undefined) showed a cAMP accumulation [8] of 0%.

Compound `CC(Cc1c[nH]c2c(O)cccc12)NC[C@H](O)c1cccc(Cl)c1` (some centres undefined) has an Intrinsic activity [2] of 128% and an EC50 [4] of 1.7 nM.

With `CC(Cc1c[nH]c2c(OCc3ccccc3)cccc12)NC[C@H](O)c1cccc(Cl)c1` (some centres undefined) the Intrinsic activity [2] was 114% and the EC50 [4] was 11 nM.

For `CC(Cc1c[nH]c2ccccc12)NCC(O)c1cccc(Cl)c1` (mixture of isomers) [listing 2 of 2 here], the Intrinsic activity [1] was 46%, the Intrinsic activity [2] was 114% and the Intrinsic activity [7] was 107%.

Compound `C[C@H](Cc1c[nH]c2ccccc12)NC[C@@H](O)c1cccc(Cl)c1` has an Intrinsic activity [1] of 23%, an Intrinsic activity [2] of 119% and an EC50 [3] of 47 nM. The EC50 [4] was 220 nM, the EC50 [5] was 330 nM and the EC50 [6] was 11 nM. It also gave an Intrinsic activity [7] of 108%.

`CC(Cc1c[nH]c2c(OC(C)C)cccc12)NC[C@H](O)c1cccc(Cl)c1` (some centres undefined) was tested, and the Intrinsic activity [2] was 87% and the EC50 [4] was 2.8 nM.

Compound `CCOc1cccc2c(CC(C)NC[C@H](O)c3cccc(Cl)c3)c[nH]c12` (some centres undefined) has an Intrinsic activity [2] of 96%.

`COc1ccc2c(CC(C)NCC(O)c3cccc(Cl)c3)c[nH]c2c1` (centres undefined) gave an Intrinsic activity [2] of 102%.

In the case of `CC(Cc1c[nH]c2ccccc12)NCC(O)c1cccc(Cl)c1` (centres undefined) [listing 2 of 2 here], the EC50 [10] is reported as 12 nM.

Work on `COC(=O)COc1cccc2c(CC(C)NC[C@H](O)c3cccc(Cl)c3)c[nH]c12` (some centres undefined) yielded an Intrinsic activity [2] of 102% and an EC50 [4] of 0.92 nM.

`C[C@@H](Cc1c[nH]c2ccccc12)NC[C@H](O)c1cccc(Cl)c1` showed an Intrinsic activity [2] of 97%, an EC50 [3] of 9.4 nM and an EC50 [4] of 240 nM. The EC50 [6] was 13 nM and the Intrinsic activity [7] was 96%.

In the case of `Cc1[nH]c2ccccc2c1CCNCC(O)c1cccc(Cl)c1` (centres undefined), the cAMP accumulation [8] is reported as 5%.

`COc1cccc2c(CC(C)NC[C@H](O)c3cccc(Cl)c3)c[nH]c12` (some centres undefined) showed an Intrinsic activity [2] of 114%.

Work on `CC(Cc1c[nH]c2cc(Cl)ccc12)NCC(O)c1cccc(Cl)c1` (centres undefined) yielded an Intrinsic activity [2] of 131% and an EC50 [4] of 28 nM.

Work on `Cc1cccc2c(CCNCC(O)c3cccc(Cl)c3)c[nH]c12` (centres undefined) yielded a cAMP accumulation [8] of 0%.

Compound `C[C@@H](Cc1c[nH]c2c(OCC(=O)O)cccc12)NC[C@H](O)c1cccc(Cl)c1` has an Intrinsic activity [2] of 84%, an EC50 [3] of 14 nM and an EC50 [4] of 10 nM. The EC50 [6] was 1.2 nM and the Intrinsic activity [7] was 106%.

`C[C@H](Cc1c[nH]c2c(OCC(=O)O)cccc12)NC[C@H](O)c1cccc(Cl)c1` [RAFABEGRON] showed an Intrinsic activity [1] of 26%, an Intrinsic activity [2] of 116% and an EC50 [3] of 6.4 nM. The EC50 [4] was 0.062 nM, the EC50 [5] was 13 nM and the EC50 [6] was 0.016 nM. It also gave an Intrinsic activity [7] of 110%.
